Activity calls are given as the source filed them. The calls are words filed in the database; no cut-off is given here.
Key:
[1] = Half life in Sprague-Dawley rat at 3 mg/kg measured up to 24 hrs by LC-MS/MS analysis; type: ADME, organism-based; settings: in vivo
[2] = Toxicity in […] xenografted with mouse BaF3 cells transfected with ETV6-NTRK3-G623R mutant assessed as death at 100 mg/kg, po administered once daily for 21 days and measured twice weekly; type: organism-based; settings: in vivo, 504 h, time 21 day
[3] = tested on: BaF3; experiment: Antitumor activity against mouse BaF3 cells transfected with ETV6-NTRK3 cells xenografted in mouse assessed as tumor growth inhibition at 100 mg/kg, po administered once daily for 21 days and measured twice weekly; settings: time 21.0 day
[4] = tested on: KM12; experiment: Antiproliferative activity against TrK fused human KM12 cells; type: functional, cell-based
[5] = tested on: Hepatocyte growth factor receptor (Homo sapiens), P08581 [D1246H]; experiment: Inhibition of recombinant human Met D1246H mutant (974 to end residues) assessed as residual activity at 0.5 uM using KKKGQEEEYVFIE as substrate incubated for 40 mins in presence of [gamma-33P]-ATP by scintillation counting method relative to control
[6] = molecular target: High affinity nerve growth factor receptor (Homo sapiens, UniProt P04629)
Chain of High affinity nerve growth factor receptor (P04629 whole entry): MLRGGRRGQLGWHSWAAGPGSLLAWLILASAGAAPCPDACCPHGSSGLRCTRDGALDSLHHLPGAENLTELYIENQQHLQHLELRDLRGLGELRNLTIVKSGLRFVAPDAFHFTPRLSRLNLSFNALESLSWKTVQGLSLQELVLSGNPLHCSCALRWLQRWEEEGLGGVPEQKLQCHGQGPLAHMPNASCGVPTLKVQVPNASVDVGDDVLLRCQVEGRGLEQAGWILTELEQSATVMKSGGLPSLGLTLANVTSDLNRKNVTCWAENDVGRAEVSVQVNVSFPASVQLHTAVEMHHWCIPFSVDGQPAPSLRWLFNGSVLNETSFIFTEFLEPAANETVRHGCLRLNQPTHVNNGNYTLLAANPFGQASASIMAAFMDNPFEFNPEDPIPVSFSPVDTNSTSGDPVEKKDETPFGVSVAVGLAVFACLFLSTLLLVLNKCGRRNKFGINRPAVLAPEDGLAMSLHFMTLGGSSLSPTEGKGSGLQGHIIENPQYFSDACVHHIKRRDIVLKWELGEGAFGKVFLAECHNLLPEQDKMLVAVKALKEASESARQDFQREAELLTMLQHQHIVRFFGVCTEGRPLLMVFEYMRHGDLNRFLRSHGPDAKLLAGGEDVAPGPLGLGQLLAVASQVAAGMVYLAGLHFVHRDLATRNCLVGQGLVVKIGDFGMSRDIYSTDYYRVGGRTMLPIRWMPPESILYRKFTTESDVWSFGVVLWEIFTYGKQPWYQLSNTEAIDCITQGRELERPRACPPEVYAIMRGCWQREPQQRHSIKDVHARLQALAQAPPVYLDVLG
Description: Inhibition of TrKA (unknown origin) incubated for 120 mins in presence of 33P-ATP

[7] = molecular target: Voltage-gated inwardly rectifying potassium channel KCNH2 (Homo sapiens, UniProt Q12809); experiment: Inhibition of human ERG
[8] = molecular target: NT-3 growth factor receptor (Homo sapiens, UniProt Q16288)
Chain of NT-3 growth factor receptor (Q16288 whole entry): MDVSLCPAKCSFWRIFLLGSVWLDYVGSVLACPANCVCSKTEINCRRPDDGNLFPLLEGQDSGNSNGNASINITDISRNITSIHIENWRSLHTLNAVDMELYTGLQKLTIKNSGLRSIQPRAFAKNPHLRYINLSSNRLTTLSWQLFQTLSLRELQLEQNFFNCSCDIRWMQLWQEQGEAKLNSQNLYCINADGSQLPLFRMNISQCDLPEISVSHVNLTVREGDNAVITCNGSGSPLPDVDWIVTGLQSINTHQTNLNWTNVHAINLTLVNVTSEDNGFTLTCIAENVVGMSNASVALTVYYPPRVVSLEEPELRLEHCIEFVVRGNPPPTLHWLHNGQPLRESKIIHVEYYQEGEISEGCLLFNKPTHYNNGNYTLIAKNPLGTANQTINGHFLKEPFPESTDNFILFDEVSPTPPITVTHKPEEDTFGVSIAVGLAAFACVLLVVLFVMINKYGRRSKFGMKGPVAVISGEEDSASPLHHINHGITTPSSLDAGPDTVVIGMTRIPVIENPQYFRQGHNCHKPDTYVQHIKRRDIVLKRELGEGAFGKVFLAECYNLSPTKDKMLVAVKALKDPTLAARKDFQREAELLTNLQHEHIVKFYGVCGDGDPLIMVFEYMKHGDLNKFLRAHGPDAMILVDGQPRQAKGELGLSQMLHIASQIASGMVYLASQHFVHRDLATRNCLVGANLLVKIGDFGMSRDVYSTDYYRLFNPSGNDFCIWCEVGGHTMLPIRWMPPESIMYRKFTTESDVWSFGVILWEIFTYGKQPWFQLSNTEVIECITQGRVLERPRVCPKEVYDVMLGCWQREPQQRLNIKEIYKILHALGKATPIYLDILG
Description: Inhibition of TrKC (unknown origin) incubated for 120 mins in presence of 33P-ATP

[9] = molecular target: ALK tyrosine kinase receptor (Homo sapiens, UniProt Q9UM73); experiment: Inhibition of human ALK (1058 to end residues) assessed as residual activity at 0.5 uM using KKKSPGEYVNIEFG as substrate incubated for 40 mins in presence of [gamma-33ATP] by scintillation counting based radiometry assay relative to control
Chain of ALK tyrosine kinase receptor (Q9UM73 19-1620 limits assumed): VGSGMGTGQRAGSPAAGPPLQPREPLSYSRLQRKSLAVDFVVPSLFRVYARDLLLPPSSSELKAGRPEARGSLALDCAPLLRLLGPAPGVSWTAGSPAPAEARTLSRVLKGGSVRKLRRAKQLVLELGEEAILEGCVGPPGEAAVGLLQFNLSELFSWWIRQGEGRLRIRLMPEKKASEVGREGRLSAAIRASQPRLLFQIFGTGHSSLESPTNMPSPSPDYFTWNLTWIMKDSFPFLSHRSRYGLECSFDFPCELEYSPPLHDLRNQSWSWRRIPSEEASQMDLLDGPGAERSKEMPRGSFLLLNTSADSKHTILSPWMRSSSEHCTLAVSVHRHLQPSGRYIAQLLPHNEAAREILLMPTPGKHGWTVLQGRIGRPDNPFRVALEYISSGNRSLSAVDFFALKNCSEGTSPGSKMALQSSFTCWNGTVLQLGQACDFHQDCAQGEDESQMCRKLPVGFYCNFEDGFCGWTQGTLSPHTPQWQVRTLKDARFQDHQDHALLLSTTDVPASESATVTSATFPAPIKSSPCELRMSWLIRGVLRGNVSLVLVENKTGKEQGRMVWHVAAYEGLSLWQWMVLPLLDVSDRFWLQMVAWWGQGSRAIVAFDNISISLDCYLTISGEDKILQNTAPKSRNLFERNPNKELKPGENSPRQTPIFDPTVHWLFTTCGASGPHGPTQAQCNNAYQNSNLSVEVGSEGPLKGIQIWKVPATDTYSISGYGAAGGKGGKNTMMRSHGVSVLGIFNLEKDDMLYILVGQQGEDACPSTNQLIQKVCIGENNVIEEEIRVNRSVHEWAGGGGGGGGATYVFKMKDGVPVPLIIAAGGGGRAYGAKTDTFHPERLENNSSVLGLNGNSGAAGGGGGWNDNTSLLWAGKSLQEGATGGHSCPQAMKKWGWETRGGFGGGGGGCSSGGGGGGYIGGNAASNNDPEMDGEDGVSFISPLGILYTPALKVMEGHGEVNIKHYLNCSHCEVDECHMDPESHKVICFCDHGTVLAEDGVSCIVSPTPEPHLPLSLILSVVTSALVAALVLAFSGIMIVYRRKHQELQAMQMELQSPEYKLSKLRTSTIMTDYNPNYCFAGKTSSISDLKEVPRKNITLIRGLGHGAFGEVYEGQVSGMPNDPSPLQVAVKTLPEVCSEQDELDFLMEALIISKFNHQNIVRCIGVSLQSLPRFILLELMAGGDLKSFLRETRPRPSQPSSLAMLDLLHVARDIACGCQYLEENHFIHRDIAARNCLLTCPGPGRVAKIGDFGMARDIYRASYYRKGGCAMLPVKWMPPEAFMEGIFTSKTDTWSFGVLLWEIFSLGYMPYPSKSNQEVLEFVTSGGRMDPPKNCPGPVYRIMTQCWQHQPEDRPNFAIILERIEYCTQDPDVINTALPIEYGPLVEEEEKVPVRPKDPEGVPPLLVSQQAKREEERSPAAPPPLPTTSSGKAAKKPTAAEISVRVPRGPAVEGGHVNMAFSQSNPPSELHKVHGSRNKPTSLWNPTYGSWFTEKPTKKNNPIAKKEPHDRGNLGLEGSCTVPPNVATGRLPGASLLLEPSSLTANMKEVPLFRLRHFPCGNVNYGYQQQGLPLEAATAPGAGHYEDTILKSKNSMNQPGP

[10] = tested on: Hepatocyte growth factor receptor (Homo sapiens), P08581 [Y1248C]; experiment: Inhibition of recombinant human Met Y1248C mutant (974 to end residues) assessed as residual activity at 0.5 uM using KKKGQEEEYVFIE as substrate incubated for 40 mins in presence of [gamma-33P]-ATP by scintillation counting method relative to control
[11] = molecular target: Focal adhesion kinase 1 (Homo sapiens) (UniProt Q05397); experiment: Inhibition of recombinant human FAK (411 to 686 residues) assessed as residual activity at 0.5 uM using EEEEYEEEEEEYYIIEEEEEEYEEEEEEYYEEEEEEKKKK as substrate at 40 mins in presence of [gamma-33ATP] by scintillation counting based radiometry assay relative to control
[12] = Clearance in male Sprague-Dawley rat at 2 mg/kg, iv measured up to 24 hrs by LC/MS/MS analysis; type: ADME, organism-based; settings: in vivo
[13] = tested on: BaF3; experiment: Antitumor activity against mouse BaF3 cells transfected with LMNA-NTRK1-G595R mutant xenografted in mouse assessed as tumor growth inhibition at 5 to 20 mg/kg, po administered once daily for 21 days and measured twice weekly; settings: dose 5-20 mg/kg, time 21.0 day
[14] = Toxicity in […] xenografted with mouse BaF3 cells transfected with LMNA-NTRK1 assessed as weight loss at 20 mg/kg, po administered once daily for 21 days and measured twice weekly; type: organism-based; settings: in vivo, 504 h, time 21 day
[15] = molecular target: Fibroblast growth factor receptor 4 (Homo sapiens) (UniProt P22455); experiment: Inhibition of recombinant human FGFR4 (442 to 755 residues) assessed as residual activity at 0.5 uM using poly(Glu, Tyr) 4:1 as substrate at 40 mins in presence of [gamma-33ATP] by scintillation counting based radiometry assay relative to control
Chain of Fibroblast growth factor receptor 4 (Homo sapiens) (P22455 22-802 limits assumed): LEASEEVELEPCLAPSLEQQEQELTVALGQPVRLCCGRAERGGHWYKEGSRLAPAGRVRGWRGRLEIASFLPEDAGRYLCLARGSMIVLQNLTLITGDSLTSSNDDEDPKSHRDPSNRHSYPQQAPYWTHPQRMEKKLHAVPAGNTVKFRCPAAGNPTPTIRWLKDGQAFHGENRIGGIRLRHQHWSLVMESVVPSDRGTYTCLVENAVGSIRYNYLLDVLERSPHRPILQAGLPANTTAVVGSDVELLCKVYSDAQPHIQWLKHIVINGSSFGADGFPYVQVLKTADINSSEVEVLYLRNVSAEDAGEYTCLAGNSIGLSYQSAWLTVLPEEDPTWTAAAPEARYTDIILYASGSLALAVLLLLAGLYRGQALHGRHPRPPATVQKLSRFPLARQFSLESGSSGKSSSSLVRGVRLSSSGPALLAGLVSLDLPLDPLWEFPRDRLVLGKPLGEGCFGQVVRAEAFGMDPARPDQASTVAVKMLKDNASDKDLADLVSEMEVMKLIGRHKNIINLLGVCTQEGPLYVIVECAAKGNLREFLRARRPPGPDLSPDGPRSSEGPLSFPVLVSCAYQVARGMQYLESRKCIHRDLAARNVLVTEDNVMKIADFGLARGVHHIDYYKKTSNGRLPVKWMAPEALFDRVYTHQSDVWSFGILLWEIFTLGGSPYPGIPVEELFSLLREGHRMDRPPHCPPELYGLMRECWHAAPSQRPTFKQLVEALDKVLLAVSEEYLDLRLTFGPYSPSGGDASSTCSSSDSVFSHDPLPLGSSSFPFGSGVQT

[16] = tested on: Hepatocyte growth factor receptor (Homo sapiens), P08581 [Y1248D]; experiment: Inhibition of recombinant human Met Y1248D mutant (974 to end residues) assessed as residual activity at 0.5 uM using KKKGQEEEYVFIE as substrate incubated for 40 mins in presence of [gamma-33P]-ATP by scintillation counting method relative to control
[17] = molecular target: Platelet-derived growth factor receptor alpha (Homo sapiens) (UniProt P16234); experiment: Inhibition of human PDGFRalpha (550 to end residues) assessed as residual activity at 0.5 uM poly(Glu, Tyr) 4:1 as substrate measured after 40 mins in presence of [gamma33P]ATP by scintillation counting method relative to control
Chain of Platelet-derived growth factor receptor alpha (Homo sapiens) (P16234 whole entry): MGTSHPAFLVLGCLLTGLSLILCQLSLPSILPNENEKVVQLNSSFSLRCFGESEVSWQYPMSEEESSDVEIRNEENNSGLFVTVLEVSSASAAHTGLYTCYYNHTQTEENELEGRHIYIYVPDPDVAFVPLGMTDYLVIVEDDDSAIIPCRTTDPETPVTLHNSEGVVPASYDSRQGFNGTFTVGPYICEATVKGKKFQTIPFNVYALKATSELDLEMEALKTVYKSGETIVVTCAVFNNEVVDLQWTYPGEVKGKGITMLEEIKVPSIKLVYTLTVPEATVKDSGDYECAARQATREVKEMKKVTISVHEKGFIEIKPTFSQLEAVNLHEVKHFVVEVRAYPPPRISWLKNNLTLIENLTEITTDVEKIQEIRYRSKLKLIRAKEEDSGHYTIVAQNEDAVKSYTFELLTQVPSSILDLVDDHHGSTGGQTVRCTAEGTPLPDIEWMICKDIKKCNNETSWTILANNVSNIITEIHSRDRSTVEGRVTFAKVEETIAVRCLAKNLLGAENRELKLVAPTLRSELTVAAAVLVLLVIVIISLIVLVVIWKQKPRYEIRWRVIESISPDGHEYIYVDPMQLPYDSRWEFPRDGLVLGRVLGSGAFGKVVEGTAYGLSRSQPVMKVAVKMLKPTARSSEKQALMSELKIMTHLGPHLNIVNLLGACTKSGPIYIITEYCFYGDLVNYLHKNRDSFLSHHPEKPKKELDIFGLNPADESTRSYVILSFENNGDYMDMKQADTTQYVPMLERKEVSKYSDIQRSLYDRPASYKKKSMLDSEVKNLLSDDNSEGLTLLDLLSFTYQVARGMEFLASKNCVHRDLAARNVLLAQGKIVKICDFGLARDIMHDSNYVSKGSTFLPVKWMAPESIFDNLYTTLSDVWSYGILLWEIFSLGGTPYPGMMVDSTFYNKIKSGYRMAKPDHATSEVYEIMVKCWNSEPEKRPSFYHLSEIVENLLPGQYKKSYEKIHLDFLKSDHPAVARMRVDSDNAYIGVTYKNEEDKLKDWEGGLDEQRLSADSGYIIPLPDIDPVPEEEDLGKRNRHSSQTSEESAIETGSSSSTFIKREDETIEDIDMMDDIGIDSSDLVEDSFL

[18] = Volume of distribution in female Sprague-Dawley rat at 2 mg/kg, iv measured up to 24 hrs by LC-MS/MS analysis; type: ADME, organism-based; settings: in vivo
[19] = Toxicity in mouse xenografted with mouse BaF3 cells transfected with LMNA-NTRK1-G595R mutant assessed as weight loss at 20 mg/kg, po administered once daily for 21 days and measured twice weekly; settings: in vivo, 504 h

Compound | half-life [1] [h] | Activity [2] | Activity [3] | IC50 [4] [nM] | Activity [5] [%] | IC50 [6] [nM] | IC50 [7] [nM] | IC50 [8] [nM] | Activity [9] [%] | Activity [10] [%] | Activity [11] [%] | clearance [12] [mL/min/kg] | Activity [13] | Activity [14] | Activity [15] [%] | Activity [16] [%] | Activity [17] [%] | Vd [18] [L/kg] | Activity [19]
C[C@@H]1CCc2ncc(F)cc2[C@H]2CCCN2c2ccn3ncc(c3n2)C(=O)N1 [SELITRECTINIB] | 1.2 | Toxic | Active | ≤ 5 | – | – | – | – | – | – | – | – | – | – | – | – | – | – | –
O=C1NC2(CC2)COc2ncc(F)cc2[C@H]2COCCN2c2ccn3ncc1c3n2 | – | – | – | – | 91 | 2.4 | 13000 | 0.2 | 26 | 85 | 72 | 19.3 | Active | Toxic | 114 | 96 | 106 | 1.46 | Toxic
